The test relates to HBeAg level (surrogate marker for cccDNA) in HepDES19 cells. Put plainly: Engineered HepDES19 primary screen assay (HBeAg as surrogate marker for cccDNA). The class given is cell-based, HBV. An excerpt:
The assay was employed to screen for novel cccDNA inhibitors. HepDES19 is a cccDNA-producing cell line. In this cell line, HBeAg in the cell culture supernatant as surrogate marker, as HBeAg production depends on cccDNA level and activity. HepDES19 is an engineered cell line which contains a 1.1 unit length HBV genome, and pgRNA transcription from the transgene is controlled by Tetracycline (Tet). In the absence of Tet, pgRNA transcription will be induced, but HBV e antigen (HBeAg) could not be produced from this pgRNA due to very short leader sequence before the HBeAg start codon and the start codon is disrupted. Only after cccDNA is formed, the missing leader sequence and start codon mutation would be restored from the 3′-terminal redundancy of pgRNA, and then HBeAg could be synthesized. Therefore, HBeAg could be used as a surrogate marker for cccDNA (Zhou, T. et al., Antiviral Res. (2006), 72(2), 116-124; Guo, H. et al., J. Virol. (2007), 81(22), 12472-12484).
HepDES19 cells were seeded at 2×10^6 cells per T150 flask and cultured with the culture medium (Dulbecco's Modified Eagle Medium: Nutrient Mixture F-12 [DMEM-F12, Gibco Cat. 11320-82], 10% Fetal Bovine Serum [FBS, Clontech Cat. 631101], 0.1 mM Non-Essential Amino Acids Solution [NEAA, Gibco Cat. 11140-050], 50 μg/mL Penicillin-Streptomycin [PS, Invitrogen Cat. 15140-163], 500 μg/mL Geneticin [G418, Invitrogen Cat. 10131-027]) containing 3 μg/mL Tet (Sigma, Cat. 87128) for 5 days. Cells were then seeded at 4×10^6 cells per T150 in the same culture medium as described above in the absence of Tet for 8 days. Cells were then harvested and frozen at density of 2×10^6 cells per mL. For compound testing, the frozen cells were thawed and seeded into 96-well plates at a density of 6×10^4 cells per well. At 24 hrs after seeding, half log serial dilutions of compounds made with Dimethyl sulfoxide (DMSO, Sigma, Cat. D2650) were further diluted with the same culture medium as described above before they were added to the cells to reach desired final compound concentrations and 1% DMSO concentration. Plates were then incubated at 37° C. for another 5 days before measurement of HBeAg level and cell viability. Intracellular HBeAg level were measured with enzyme-linked immunosorbent assay (ELISA) kit (Shanghai Kehua Diagnostic Medical Products Co., Ltd). Cell viability was assessed using Cell Counting Kit-8 (Donjindo, Cat. CK04-20). IC50 values were derived from the dose-response curve using 4 parameter logistic curve fit method.
The compounds of the present invention were tested for their capacity to inhibit extracellular HBeAg level as described herein.

The mark [1] stands for this setting: read-out: IC50 (HBeAg) in HepDES19 primary screen assay, HepDES19 cells, 5 days incubation with compound, HBeAg by ELISA.
Setting [2] is: Hepatitis B virus, HepDES19, 120 h, read-out: IC50 (HBeAg) in HepDES19 primary screen assay, HepDES19 cells, 5 days incubation with compound, HBeAg by ELISA.

The results in this text go back to US12012390B2, “Flavone compounds for the treatment and prophylaxis of hepatitis B virus disease” (priority 2018, dated 2024).

Read-outs that look alike come from different tables or passages of the source.

Broadly, the IC50 is the point on the concentration scale where inhibition reaches its midpoint. As to `O=C(O)[C@H]1C[C@H]1OCCOc1ccc(-c2cc(=O)c3cccc(Cl)c3o2)cc1` (single isomer, unassigned) [Example 5-A, 2-[2-[4-(8-chloro-4-oxo-chromen-2-yl)phenoxy]ethoxy]cyclopropanecarboxylic acid], the IC50 under setting [1] was found to be 1.36 µM.

`O=c1cc(-c2ccc(OCCO[C@H]3CC[C@@H](C(=O)O)CC3)cc2)oc2c(Cl)cccc12` (single isomer, unassigned) [Example 7-A, 4-[2-[4-(8-chloro-4-oxo-chromen-2-yl)phenoxy]ethoxy]cyclohexanecarboxylic acid]: the IC50 under setting [2] turned out to be 15.4 µM.

For the molecule `O=c1cc(-c2ccc(OCCO[C@H]3CC[C@@H](C(=O)O)CC3)cc2)oc2c(Cl)cccc12` (single isomer, unassigned) [Example 7-B, 4-[2-[4-(8-chloro-4-oxo-chromen-2-yl)phenoxy]ethoxy]cyclohexanecarboxylic acid], under setting [1], the IC50 amounted to 19.7 µM.

As for `COC(=O)C1CC(OCCOc2ccc(-c3oc4c(Cl)cc(F)cc4c(=O)c3OC(F)(F)F)cc2)C1` (single isomer, unassigned) [Example 62-B, methyl 3-[2-[4-[8-chloro-6-fluoro-4-oxo-3-(trifluoromethoxy)chromen-2-yl]phenoxy]ethoxy]cyclobutanecarboxylate], the IC50 under setting [1] came out at 1.32 µM.

On to `O=C(O)C1CC(OCCOc2ccc(-c3cc(=O)c4ccc(C5CC5)c(Cl)c4o3)cc2)C1` (single isomer, unassigned) [Example 70-A, 3-[2-[4-(8-chloro-7-cyclopropyl-4-oxo-chromen-2-yl)phenoxy]ethoxy]cyclobutanecarboxylic acid], for which the half-inhibitory concentration (IC50) under setting [1] was 19.8 µM.

Turning to `O=C(O)COCCOc1ccc(-c2cc(=O)c3cccc(Cl)c3o2)cc1` [Example 9, 2-[2-[4-(8-chloro-4-oxo-chromen-2-yl)phenoxy]ethoxy]acetic acid], the IC50 under setting [2] amounted to 2.46 µM.

Consider `O=C(O)C1CC(OCCOc2ccc(-c3cc(=O)c4cc(F)cc(Cl)c4o3)cc2)C1` (stereo not drawn) [Example 20, 3-[2-[4-(8-chloro-6-fluoro-4-oxo-chromen-2-yl)phenoxy]ethoxy]cyclobutanecarboxylic acid], for which, under setting [2], the IC50 came to 0.7 µM.

For the molecule `N#Cc1cc(Cl)c2oc(-c3ccc(OCCOC4CC(C(=O)O)C4)cc3)cc(=O)c2c1` (stereo not drawn) [Example 22, 3-[2-[4-(8-chloro-6-cyano-4-oxo-chromen-2-yl)phenoxy]ethoxy]cyclobutanecarboxylic acid], the IC50 under setting [2] was determined as 13 µM.

For the molecule `CC(C)Oc1ccc(Cl)c2oc(-c3ccc(OCCO[C@H]4C[C@@H](C(=O)O)C4)cc3)cc(=O)c12` [Example 27, Cis-3-[2-[4-(8-chloro-5-isopropoxy-4-oxo-chromen-2-yl)phenoxy]ethoxy]cyclobutanecarboxylic acid], the IC50 under setting [2] was determined as 7.68 µM.

As for `Cc1ccc(Cl)c2oc(-c3ccc(OCCO[C@H]4C[C@@H](C(=O)O)C4)cc3)cc(=O)c12` [Example 31, Cis-3-[2-[4-(8-chloro-5-methyl-4-oxo-chromen-2-yl)phenoxy]ethoxy]cyclobutanecarboxylic acid], the 50% inhibitory concentration (IC50) under setting [2] came out at 0.78 µM.

On to `O=c1cc(-c2ccc(OCCO[C@H]3C[C@@H](C(=O)O)C3)cc2)oc2c(C3CC3)cccc12` [Example 34, Cis-3-[2-[4-(8-cyclopropyl-4-oxo-chromen-2-yl)phenoxy]ethoxy]cyclobutanecarboxylic acid], for which the IC50 under setting [2] stood at 16 µM.

Regarding `Cc1cccc2c(=O)cc(-c3ccc(OCCO[C@H]4C[C@@H](C(=O)O)C4)cc3)oc12` [Example 35, Cis-3-[2-[4-(8-methyl-4-oxo-chromen-2-yl)phenoxy]ethoxy]cyclobutanecarboxylic acid], the IC50 under setting [2] stood at 13.9 µM.

`O=C(O)COCCOc1ccc(-c2cc(=O)c3c(F)ccc(Cl)c3o2)cc1` [Example 37, 2-[2-[4-(8-chloro-5-fluoro-4-oxo-chromen-2-yl)phenoxy]ethoxy]acetic acid]: under setting [2], the half-maximal inhibitory concentration (IC50) was determined as 8.97 µM.

Turning to `COC(=O)[C@H]1C[C@@H](OCCOc2ccc(-c3cc(=O)c4cccc(Cl)c4o3)nn2)C1` [Example 41, Cis-methyl 3-[2-[6-(8-chloro-4-oxo-chromen-2-yl)pyridazin-3-yl]oxyethoxy]cyclobutanecarboxylate], the IC50 under setting [2] amounted to 12.8 µM.

In the case of `CC(C)c1cc(-c2cc(=O)c3cccc(Cl)c3o2)ccc1OCCOC1CC(C(=O)O)C1` (stereo not drawn) [Example 48, 3-[2-[4-(8-chloro-4-oxo-chromen-2-yl)-2-isopropyl-phenoxy]ethoxy]cyclobutanecarboxylic acid], under setting [2], the IC50 was 7.68 µM.

Take `COc1c(-c2ccc(OCCO[C@H]3C[C@@H](C(=O)O)C3)cc2)oc2c(Cl)cccc2c1=O` [Example 56, Cis-3-[2-[4-(8-chloro-3-methoxy-4-oxo-chromen-2-yl)phenoxy]ethoxy]cyclobutanecarboxylic acid]: the IC50 under setting [2] worked out at 29.6 µM.

For `O=C(O)COCCOc1ccc(-c2oc3c(Cl)cccc3c(=O)c2O)cc1` [Example 59, 2-[2-[4-(8-chloro-3-hydroxy-4-oxo-chromen-2-yl)phenoxy]ethoxy]acetic acid], the IC50 under setting [2] came out at 20.2 µM.

Turning to `O=C(O)C1CC(OCCOc2ccc(-c3cc(=O)c4cccc(Cl)c4o3)c(N3CCOCC3)c2)C1` (stereo not drawn) [Example 60, 3-[2-[4-(8-chloro-4-oxo-chromen-2-yl)-3-morpholino-phenoxy]ethoxy]cyclobutanecarboxylic acid], the IC50 under setting [2] is 4.84 µM.

As to `NC(=O)COCCOc1ccc(-c2cc(=O)c3cccc(Cl)c3o2)cc1` [Example 61, 2-[2-[4-(8-chloro-4-oxo-chromen-2-yl)phenoxy]ethoxy]acetamide], the IC50 under setting [2] came out at 0.144 µM.

Take `O=C(O)C1CC(OCCOc2ccc(-c3oc4c(Cl)cccc4c(=O)c3Br)cc2)C1` (stereo not drawn) [Example 64, 3-[2-[4-(3-bromo-8-chloro-4-oxo-chromen-2-yl)phenoxy]ethoxy]cyclobutanecarboxylic acid]: the IC50 under setting [2] was 5.5 µM.

`O=C(O)C1CC(OCCOc2ccc(-c3oc4c(Cl)cccc4c(=O)c3OCc3ccccc3)cc2)C1` (stereo not drawn) [Example 65, 3-[2-[4-(3-benzyloxy-8-chloro-4-oxo-chromen-2-yl)phenoxy]ethoxy]cyclobutanecarboxylic acid]: the IC50 under setting [2] is 6.5 µM.

Turning to `O=C(O)C1CC(OCCOc2ccc(-c3cc(=O)c4cc(N5CCCC5=O)cc(Cl)c4o3)cc2)C1` (stereo not drawn) [Example 68, 3-[2-[4-[8-chloro-4-oxo-6-(2-oxopyrrolidin-1-yl)chromen-2-yl]phenoxy]ethoxy]cyclobutanecarboxylic acid], the IC50 under setting [2] worked out at 10.1 µM.

With `O=C(O)C1CC(OCCOc2ccc(-c3cc(=O)c4ccc(C5CC5)c(Cl)c4o3)cc2)C1` (stereo not drawn) [Example 70, 3-[2-[4-(8-chloro-7-cyclopropyl-4-oxo-chromen-2-yl)phenoxy]ethoxy]cyclobutanecarboxylic acid], the IC50 under setting [2] is 17.2 µM.

As to `CCOC(=O)COCCOc1ccc(-c2cc(=O)c3ccc(Br)c(Cl)c3o2)cc1` [Example 71, ethyl 2-[2-[4-(7-bromo-8-chloro-4-oxo-chromen-2-yl)phenoxy]ethoxy]acetate], the IC50 under setting [2] amounted to 9.3 µM.
